Assay [1] has as its system renin enzyme prepared from hog kidney. The experiment in a line: Renin assay (solid phase radioimmunoassay of angiotensin I). In kind it is biochemical. The following applies: ratio of renin I50 to pepsin I50. How it is done:
The compound of Example 1 was evaluated against renin, employing a solid phase radioimmunossay adapted and modified from the assay of Ikedo et al., W. of Clinical Endocrinology and Metabolism, 54, 423-428, 1982), and pepsin assays as illustrated below:
Ten μl of the test inhibitor/broth extract from Example 1 was mixed with 5 μl of 0.11M phenylmethylsulfonyl fluoride and 0.25 ml of 0.1M potassium phosphate buffer, pH 7.0, containing 0.05% sodium azide and one mg/ml of bovine serum albumin. Twenty μl of 2 μg renin enzyme prepared from hog kidney was added and the mixture was incubated at 37° C. for 20 minutes. The enzyme reaction was initiated by adding 20 μl of substrate solution which was prepared by dissolving 4 mg of angiotensinogen in 4 ml of 0.1M potassium phosphate buffer, pH 7.0, containing 0.05% sodium azide and 1 mg/ml of BSA.
After 20 minutes' incubation at 37° C., the enzyme reaction was stopped by the addition of 100 μl of ^125 I-angiotensin I tracer-pepstatin. […] Two ml of water was then added to each tube and the solution was aspirated, with the tube with the ball being counted in a γ-counter.
The activity of the test compound was calculated based on the standard curve of known amount of angiotensin I.

The subject of assay [2] is hog renin. The following applies: after the injection of hog renin into nephrectomized rats; cited from earlier work.

Square brackets hold non-standard residues; d marks the D form. Peptide text beside a SMILES is read from it. * marks the point of attachment. Sta = CC(C)C[C@H](N)[C@@H](O)CC(=O)O; Isovaleryl = CC(C)CC(=O)*

Take `CC(C)CC(=O)N[C@H](C(=O)N[C@H](C(=O)N[C@@H](CC(C)C)[C@@H](O)CC(=O)N[C@@H](C)C(=O)N[C@@H](CC(C)C)[C@@H](O)CC(=O)O)C(C)C)C(C)C` [Pepstatin A] (Isovaleryl-VV[Sta]A[Sta]-OH): the “I50 ratio of renin/pepsin” value in assay [1] amounted to 1160. In assay [2], the “blood pressure in vivo” value was “reduces blood pressure”.
